Holding throughout (test): Test A pre/postemergence
Common to all, as to type: in vivo

Experiment [1] deals with redroot pigweed (Amaranthus retroflexus). To be noted: for pest or weed control at 125 g/ha / pest or weed control at 500 g/ha: Amaranthus retroflexus, 240 h, read-out: Plant response rating, Pigweed. Put shortly: (§1)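 Seeds sown in loam–sand blend received a preemergence directed soil spray of test chemical in non-phytotoxic solvent with surfactant; same-formulation postemergence spray given concurrently to plants 2–10 cm tall at 1- to 2-leaf stage. Greenhouse ~ten days, then visual injury rating versus untreated controls, 0 (no effect) to 100 (complete control).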

Experiment [2] relates to giant foxtail (Setaria faberi). To be noted: for pest or weed control at 125 g/ha / pest or weed control at 500 g/ha: Setaria faberi, 240 h, read-out: Plant response rating, Foxtail, Giant. Put shortly: as §1
Experiment [3] has as its system barnyardgrass (Echinochloa crus-galli). To be noted: for pest or weed control at 125 g/ha / pest or weed control at 500 g/ha: Echinochloa crus-galli, 240 h, read-out: Plant response rating, Barnyardgrass. Put shortly:
as §1

In experiment [4] the test system is crabgrass (Digitaria sanguinalis). To be noted: for pest or weed control at 125 g/ha / pest or weed control at 500 g/ha: Digitaria sanguinalis, 240 h, read-out: Plant response rating, Crabgrass. Put shortly:
as §1

Experiment [5] has as its system velvetleaf (Abutilon theophrasti). To be noted: for pest or weed control at 125 g/ha / pest or weed control at 500 g/ha: Abutilon theophrasti, 240 h, read-out: Plant response rating, Velvetleaf. The method, boiled down: as §1
In experiment [6] the test system is morningglory (Ipomoea spp.). To be noted: for pest or weed control at 125 g/ha / pest or weed control at 500 g/ha: Ipomoea, 240 h, read-out: Plant response rating, Morningglory. Put shortly:
as §1

Where [7] appears, read: post-emergence, Postemergence, 125 g ai/ha, 0 to 100 scale (0 no effect, 100 complete control).
The mark [8] stands for this setting: post-emergence, Postemergence, 500 g ai/ha, 0 to 100 scale (0 no effect, 100 complete control).
The mark [9] stands for this setting: pre-emergence, Preemergence, 125 g ai/ha, 0 to 100 scale where 0 is no effect and 100 is complete control, approximately ten days.
Setting [10] is: pre-emergence, Preemergence, 500 g ai/ha, 0 to 100 scale where 0 is no effect and 100 is complete control, approximately ten days.
Where [11] appears, read: Postemergence, 125 g ai/ha, 0 to 100 scale (0 no effect, 100 complete control).
Setting [12] is: Postemergence, 500 g ai/ha, 0 to 100 scale (0 no effect, 100 complete control).
The mark [13] stands for this setting: Preemergence, 125 g ai/ha, 0 to 100 scale where 0 is no effect and 100 is complete control, approximately ten days.
Where [14] appears, read: Preemergence, 500 g ai/ha, 0 to 100 scale where 0 is no effect and 100 is complete control, approximately ten days.

Consider 4 molecules from US8802597B2, “Herbicidal pyrimidines” (E I du Pont de Nemours and Company, priority 2003, dated 2014).

Read-outs that look alike come from different tables or passages of the source.

For `CCOC(=O)c1nc(-c2ccc3ccccc3c2)nc(N)c1Cl` [Compound 127], the pest or weed control at 125 g/ha in experiment [1] (setting [7]), in experiment [1] (setting [9]), in experiment [2] (setting [7]), in experiment [2] (setting [9]), in experiment [3] (setting [7]) and in experiment [3] (setting [9]) was 0% in each case. For the same molecule, the pest or weed control at 125 g/ha in experiment [4] (setting [7]) was determined as 0%; in experiment [4] (setting [9]), 0%; in experiment [5] (setting [7]), 60%; in experiment [5] (setting [9]) it was 0%; in experiment [6] (setting [7]), 0%; in experiment [6] (setting [9]), 0%. Further, the pest or weed control at 500 g/ha in experiment [1] (setting [8]) worked out at 10%; in experiment [1] (setting [10]), 0%; in experiment [2] (setting [8]), 0%; in experiment [2] (setting [10]), 0%; in experiment [3] (setting [8]), 0%; in experiment [3] (setting [10]), 0%. Also, the pest or weed control at 500 g/ha in experiment [4] (setting [8]) came to 0%; in experiment [4] (setting [10]) it was 0%; in experiment [5] (setting [8]), 80%; in experiment [5] (setting [10]) it was 0%; in experiment [6] (setting [8]), 0%; in experiment [6] (setting [10]), 0%.

As for `COC(=O)c1nc(-c2cccc(C)c2)nc(N)c1Cl` [Compound 97], the “Plant response rating, Pigweed” value in experiment [1] (setting [11]) is on record as 10; in experiment [1] (setting [12]), 30; in experiment [1] (setting [13]), 25; in experiment [1] (setting [14]), 70. The “Plant response rating, Foxtail, Giant” value turned out to be 0 in experiment [2] (setting [11]), 0 in experiment [2] (setting [12]), 5 in experiment [2] (setting [13]) and 5 in experiment [2] (setting [14]). In addition, the “Plant response rating, Barnyardgrass” value amounted to 30 in experiment [3] (setting [11]), 10 in experiment [3] (setting [12]), 0 in experiment [3] (setting [13]) and 0 in experiment [3] (setting [14]). Moreover, the “Plant response rating, Crabgrass” value was determined as 0 in experiment [4] (setting [11]), 0 in experiment [4] (setting [12]), 15 in experiment [4] (setting [13]) and 25 in experiment [4] (setting [14]). Besides, the “Plant response rating, Velvetleaf” value in experiment [5] (setting [11]) was 60; in experiment [5] (setting [12]), 70; in experiment [5] (setting [13]), 45; in experiment [5] (setting [14]) it was 50. For the same molecule, the “Plant response rating, Morningglory” value in experiment [6] (setting [11]) amounted to 45; in experiment [6] (setting [12]), 50; in experiment [6] (setting [13]) it was 0; in experiment [6] (setting [14]) it was 0.

As to `COC(=O)c1nc(-c2ccc(S(C)(=O)=O)cc2)nc(N)c1Cl` [Compound 122], the “Plant response rating, Pigweed” value in experiment [1] (setting [11]), in experiment [1] (setting [12]), in experiment [1] (setting [13]) and in experiment [1] (setting [14]) was 0 each time. The “Plant response rating, Foxtail, Giant” value in experiment [2] (setting [11]), in experiment [2] (setting [12]), in experiment [2] (setting [13]) and in experiment [2] (setting [14]) was 0 in each case. Also, the “Plant response rating, Barnyardgrass” value in experiment [3] (setting [11]), in experiment [3] (setting [12]), in experiment [3] (setting [13]) and in experiment [3] (setting [14]) was 0 in each case. Besides, the “Plant response rating, Crabgrass” value in experiment [4] (setting [11]), in experiment [4] (setting [12]), in experiment [4] (setting [13]) and in experiment [4] (setting [14]) was 0 each time. The “Plant response rating, Velvetleaf” value in experiment [5] (setting [11]), in experiment [5] (setting [12]), in experiment [5] (setting [13]) and in experiment [5] (setting [14]) was 0 each time. Further, the “Plant response rating, Morningglory” value in experiment [6] (setting [11]), in experiment [6] (setting [12]), in experiment [6] (setting [13]) and in experiment [6] (setting [14]) was 0 in each case.

Turning to `CCOC(=O)c1nc(-c2ccc3c(c2)OCO3)nc(N)c1Br` [Compound 68], the pest or weed control at 125 g/ha in experiment [1] (setting [7]) is 50%; in experiment [1] (setting [9]), 0%; in experiment [2] (setting [7]) it was 0%; in experiment [2] (setting [9]), 0%; in experiment [3] (setting [7]) it was 0%; in experiment [3] (setting [9]) it was 0%. For the same molecule, the pest or weed control at 125 g/ha in experiment [4] (setting [7]) was determined as 0%; in experiment [4] (setting [9]) it was 0%; in experiment [5] (setting [7]), 60%; in experiment [5] (setting [9]) it was 5%; in experiment [6] (setting [7]) it was 15%; in experiment [6] (setting [9]), 0%. Further, the pest or weed control at 500 g/ha in experiment [1] (setting [8]) amounted to 55%; in experiment [1] (setting [10]), 15%; in experiment [2] (setting [8]), 0%; in experiment [2] (setting [10]) it was 0%; in experiment [3] (setting [8]), 0%; in experiment [3] (setting [10]), 0%. For the same molecule, the pest or weed control at 500 g/ha in experiment [4] (setting [8]) is 0%; in experiment [4] (setting [10]) it was 0%; in experiment [5] (setting [8]), 60%; in experiment [5] (setting [10]), 10%; in experiment [6] (setting [8]), 35%; in experiment [6] (setting [10]), 0%.
